According to publication PMC9578392, “Safety, Tolerability, and Pharmacokinetics of the Novel Antiviral Agent Ensitrelvir Fumaric Acid, a SARS-CoV-2 3CL Protease Inhibitor, in Healthy Adults” (Antimicrobial Agents and Chemotherapy, 2022):
“Also recorded” adds a separate entry of the source. Read-outs that look alike come from different tables or passages of the source.

Assays:
[1] = Single ascending oral dose pharmacokinetics (part 1, plasma and urine, fasted); assay type: in vivo, human; conditions: for Feu0-144: urine; for AUC(0-inf) / AUC(0-t) / Cmax / MRT / Vd/F / half-life / Tmax / CL renal: human, oral; for AUC(0-inf) / AUC(0-t) / Cmax / MRT / Vd/F / half-life / Tmax: plasma; for Vd/F: read-out: Vz/F; for CL renal: urine and plasma
[2] = Effect of food on pharmacokinetics (cohort C, 250 mg crossover); assay type: in vivo, human; conditions: for Tmax / AUC(0-inf) / AUC(0-t) / Cmax / half-life: human, plasma, oral, 250 mg; for AUC(0-inf): read-out: AUC0-inf, GLS mean; for AUC(0-t): read-out: AUC0-last, GLS mean; for Cmax: read-out: Cmax, GLS mean; for half-life: read-out: t1/2,z, GLS mean (converted)
Description: In part 1, Japanese participants were randomized to receive placebo or single dose of ensitrelvir (20, 70, 250, 500, 1,000, and 2,000 mg given to cohorts A, B, C, D, E, and J, respectively), suspended in 0.5% methylcellulose, in the fasted state. Additionally, in cohort C, the effect of food on the pharmacokinetics of ensitrelvir was investigated in a 2-group, 2-period crossover design by administering placebo or ensitrelvir (250 mg) in the fasted or fed (high-fat/high-calorie) state. In part 2, Japanese participants were randomized to receive placebo or multiple doses of ensitrelvir, suspended in 0.5% methylcellulose. The multiple-dose regimens were as follows: once-daily doses of ensitrelvir 375 mg on day 1 and 125 mg on days 2 to 5 (cohort F), or 750 mg on day 1 and 250 mg on days 2 to 6 (cohort G) in the fasted state. White participants were randomized to receive placebo or multiple doses of ensitrelvir. The multiple-dose regimens were as follows: once-daily doses of ensitrelvir 375 mg on day 1 and 125 mg on days 2 to 5 (cohort H). Each cohort included 11 participants. In cohort G, the effect of ensitrelvir on the pharmacokinetics of midazolam (syrup) was evaluated in an open label self-controlled crossover design. Midazolam 2 mg alone was administered 2 days prior to initiating ensitrelvir administration (on day −2) and midazolam was coadministered on day 6 with placebo or ensitrelvir in the fasted state to participants following once-daily doses for 5 days of placebo (days 1 to 5) or ensitrelvir (750 mg on day 1 and 250 mg on days 2–5).
Blood and urine samples were collected and analyzed at several time points to determine the concentration of ensitrelvir and midazolam. For single-dose administration, blood samples were collected predose (0 h) and 0.5, 1, 1.5, 2, 2.5, 3, 4, 6, 8, 12, 24, 36, 48, 60, 72, 96, 120, and 144 h postdose on day 1 at 20 mg (cohort A); predose (0 h) and 0.5, 1, 1.5, 2, 2.5, 3, 4, 6, 8, 12, 24, 36, 48, 60, 72, 96, 120, 144, 192, and 336 h postdose on day 1 at 70, 500, 1,000, and 2,000 mg (cohorts B, D, E, and J); and predose (0 h) and 0.5, 1, 1.5, 2, 2.5, 3, 4, 6, 8, 12, 24, 36, 48, 60, 72, 96, 120, and 144, 192, and 336 h postdose on days 1 and 15 at 250 mg (cohort C). Urine samples were collected at 0 to 24, 24 to 48, 48 to 72, 72 to 96, 96 to 120, and 120 to 144 h postdose on day 1 at 20, 70, 500, and 1,000 mg (cohorts A, B, D, and E); and 0 to 24, 24 to 48, 48 to 72, 72 to 96, 96 to 120, and 120 to 144 h postdose on days 1 and 15 at 250 mg (cohort C). For multiple-dose administration, blood samples were collected predose (0 h) and 0.5, 1, 1.5, 2, 2.5, 3, 4, 6, 8, and 12 h postdose on day 1; predose (0 h) on days 2 to 4; and predose (0 h) and 0.5, 1, 1.5, 2, 2.5, 3, 4, 6, 8, 12, and 24 h postdose on day 5 to evaluate the pharmacokinetics of ensitrelvir. Blood samples were also collected predose (0 h) and 0.5, 1, 2, 3, 4, 5, 6, 8, 12, and 24 h postdose on […] to evaluate the pharmacokinetics of midazolam.
Pharmacokinetic parameters were estimated based on the plasma concentration time data for ensitrelvir and midazolam by noncompartmental analysis (Phoenix WinNonlin version 6.2.1, Certara USA Inc., Princeton, NJ, USA). Dose proportionality assessments included the Cmax, area under the plasma concentration-time curve (AUC0-last, AUC0-inf, and AUC0-τ), and dose independency included t1/2,z, terminal elimination rate constant (λz), MRT, CL/F, and Vz/F. Urine pharmacokinetic parameters for ensitrelvir were calculated based on the urine concentrations of ensitrelvir and urine volume with noncompartmental analysis. Feu0-144 was calculated after single-dose administration. Additionally, renal clearance (CLR) was calculated using the cumulative amount of the drug excreted in urine and AUC in plasma for ensitrelvir. […]

[3] = cohort/dose A/20 mg, single dose, geometric mean (%CV)
[4] = cohort/dose B/70 mg, single dose, geometric mean (%CV)
[5] = cohort/dose C/250 mg, single dose, geometric mean (%CV)
[6] = cohort/dose D/500 mg, single dose, geometric mean (%CV)
[7] = cohort/dose E/1000 mg, single dose, geometric mean (%CV)
[8] = cohort/dose J/2000 mg, single dose, geometric mean (%CV)
[9] = Cohort C/250 mg single dose, Fasted
[10] = Cohort C/250 mg single dose, Fed

**Q.** What does the source list for Cn1cnc(Cn2c(=O)[nH]/c(=N\c3cc4cn(C)nc4cc3Cl)n(Cc3cc(F)c(F)cc3F)c2=O)n1 [Ensitrelvir, ensitrelvir fumaric acid]?
**A.** CL/F [1, 3]: 0.219 (24.3) L/h; Feu0-144 [1, 3]: 12.9 (14.6) %; CL/F [1, 4]: 0.241 (15.7) L/h; Feu0-144 [1, 4]: 14.7 (27.4) %; CL/F [1, 5]: 0.274 (16.2) L/h; Feu0-144 [1, 5]: 16.0 (16.6) %; CL/F [1, 6]: 0.252 (16.1) L/h; Feu0-144 [1, 6]: 21.8 (15.4) %; CL/F [1, 7]: 0.297 (35.5) L/h; Feu0-144 [1, 7]: 19.4 (29.5) %; CL/F [1, 8]: 0.315 (22.2) L/h; AUC(0-inf) [1, 3]: 91.4 µg·h/mL; AUC(0-t) [1, 3]: 82 µg·h/mL; Cmax [1, 3]: 1700 ng/mL; MRT [1, 3]: 61.8 h; Vd/F [1, 3]: 13.5 L; half-life ([1]; cohort/dose A/20 mg, single dose, geometric mean (%CV), read-out: t1/2,z (converted)): 42.6 h; Tmax ([1]; cohort/dose A/20 mg, single dose, median (min, max), read-out: Tmax): 2.5 h; AUC(0-inf) [1, 4]: 291 µg·h/mL; AUC(0-t) [1, 4]: 289 µg·h/mL; Cmax [1, 4]: 5200 ng/mL; MRT [1, 4]: 67.3 h; Vd/F [1, 4]: 15.9 L; half-life ([1]; cohort/dose B/70 mg, single dose, geometric mean (%CV), read-out: t1/2,z (converted)): 45.7 h; Tmax ([1]; cohort/dose B/70 mg, single dose, median (min, max), read-out: Tmax): 1.5 h; AUC(0-inf) [1, 5]: 914 µg·h/mL; AUC(0-t) [1, 5]: 907 µg·h/mL; Cmax [1, 5]: 15200 ng/mL; MRT [1, 5]: 73.4 h; Vd/F [1, 5]: 17 L; half-life ([1]; cohort/dose C/250 mg, single dose, geometric mean (%CV), read-out: t1/2,z (converted)): 43.1 h; Tmax ([1]; cohort/dose C/250 mg, single dose, median (min, max), read-out: Tmax): 2.5 h; AUC(0-inf) [1, 6]: 1990 µg·h/mL; AUC(0-t) [1, 6]: 1980 µg·h/mL; Cmax [1, 6]: 32600 ng/mL; MRT [1, 6]: 68.2 h; Vd/F [1, 6]: 15.3 L; half-life ([1]; cohort/dose D/500 mg, single dose, geometric mean (%CV), read-out: t1/2,z (converted)): 42.2 h; Tmax ([1]; cohort/dose D/500 mg, single dose, median (min, max), read-out: Tmax): 2 h; AUC(0-inf) [1, 7]: 3370 µg·h/mL; AUC(0-t) [1, 7]: 3340 µg·h/mL; Cmax [1, 7]: 63800 ng/mL; MRT [1, 7]: 70.3 h; Vd/F [1, 7]: 20.6 L; half-life ([1]; cohort/dose E/1000 mg, single dose, geometric mean (%CV), read-out: t1/2,z (converted)): 48.1 h; Tmax ([1]; cohort/dose E/1000 mg, single dose, median (min, max), read-out: Tmax): 2.75 h; AUC(0-inf) [1, 8]: 6350 µg·h/mL; AUC(0-t) [1, 8]: 6310 µg·h/mL; Cmax [1, 8]: 96900 ng/mL; MRT [1, 8]: 67.4 h; Vd/F [1, 8]: 19.6 L; half-life ([1]; cohort/dose J/2000 mg, single dose, geometric mean (%CV), read-out: t1/2,z (converted)): 43.1 h; Tmax ([1]; cohort/dose J/2000 mg, single dose, median (min, max), read-out: Tmax): 4 h; half-life ([1]; single dose 20 to 2,000 mg, range across dose groups, read-out: geometric mean terminal elimination half-life (t1/2,z)): 42.2 to 48.1 h; Tmax ([1]; single dose 20 to 2,000 mg, range across dose groups, read-out: median time to maximum plasma concentration (Tmax)): 1.5 to 4 h; CL renal [1, 3]: 0.523 mL/min; CL renal [1, 4]: 0.668 mL/min; CL renal [1, 5]: 0.845 mL/min; CL renal [1, 6]: 1.04 mL/min; CL renal [1, 7]: 1.11 mL/min; reduction of Cmax by food intake ([2]; 250 mg single dose, fed vs fasted): 15%; effect of food intake on AUC ([2]; 250 mg single dose, high-fat/high-calorie meal): did not impact; also recorded: did not affect; AUC0-inf, GLS mean (90% CI) ratio (fed/fasted) ([2]; Cohort C/250 mg single dose): 1.0460 (1.0047/1.0891); AUC0-last, GLS mean (90% CI) ratio (fed/fasted) ([2]; Cohort C/250 mg single dose): 1.0470 (1.0061/1.0895); Cmax, GLS mean (90% CI) ratio (fed/fasted) ([2]; Cohort C/250 mg single dose): 0.8508 (0.7507/0.9644); t1/2,z, GLS mean (90% CI) ratio (fed/fasted) ([2]; Cohort C/250 mg single dose): 0.9385 (0.8893/0.9905); Tmax ([2]; 250 mg single dose, fasted state): 2.5 h; Tmax ([2]; 250 mg single dose, fed state): 8 h; AUC(0-inf) [2, 9]: 914 µg·h/mL; AUC(0-t) [2, 9]: 907 µg·h/mL; Cmax [2, 9]: 15200 ng/mL; half-life [2, 9]: 43.1 h; AUC(0-inf) [2, 10]: 956 µg·h/mL; AUC(0-t) [2, 10]: 949 µg·h/mL; Cmax [2, 10]: 13000 ng/mL; half-life [2, 10]: 40.5 h
